Tested on: T1, Lip3
T1 construct: catalytic triad Ser150, Asp207, His267; primers encode N-terminal MNNYIID and C-terminal CLKSLL before the His tag
Assay: p-nitrophenol release at […] nm, Lineweaver-Burk
Format: biochemical, uncultured bacterium
Conditions: 0.1 M Tris-HCl pH 8.0, 35 °C, 3 % acetonitrile

| Compound | K M (M.10^-3) |
| --- | --- |
| CCCCCCCCCC(=O)Oc1ccc([N+](=O)[O-])cc1 [pNP-decanoate] | 1.03 ± 0.12 M∙10^−3 |
| CC(=O)Oc1ccc([N+](=O)[O-])cc1 [pNP-acetate] | 2.38 ± 0.56 M∙10^−3 |
| CCCC(=O)Oc1ccc([N+](=O)[O-])cc1 [pNP-butanoate] | 1.05 ± 0.16 M∙10^−3 |
| CCCCCCCC(=O)Oc1ccc([N+](=O)[O-])cc1 [pNP-octanoate] | 0.36 ± 0.04 M∙10^−3 |
| CCCCC(=O)Oc1ccc([N+](=O)[O-])cc1 [pNP-pentanoate] | 1.52 ± 0.20 M∙10^−3 |
